Measured values: US20110263664A1, “Inhibitors of PIM-1 Protein Kinases, Compositions and Methods for Treating Prostate Cancer” (MUSC FOUNDATION FOR RESEARCH DEVELOPMENT, priority 2007, published 2011)
Where two headings read alike, the source gives them in different places.

Key:
[1] = tested on: Human prostate cancer PC3 cells; assay: Cytotoxicity assay (MTS), PC3 cells, Table 3; type: cell-based; conditions: PC-3, 48 hours, read-out: IC50 (PC3 cell assay)
Method: Varying concentrations of the test compounds are then added to each well, and the plates were incubated for an additional 48 hours. The number of surviving cells was determined by the MTS assay (Promega). The percentage of cells killed was calculated as the percentage decrease in MTS metabolism compared with control cultures.

[2] = target: PIM2 (Homo sapiens, UniProt Q9P1W9); assay: Pim-2 kinase IC50, Table 2; type: biochemical
Chain of PIM2 (Q9P1W9 whole entry): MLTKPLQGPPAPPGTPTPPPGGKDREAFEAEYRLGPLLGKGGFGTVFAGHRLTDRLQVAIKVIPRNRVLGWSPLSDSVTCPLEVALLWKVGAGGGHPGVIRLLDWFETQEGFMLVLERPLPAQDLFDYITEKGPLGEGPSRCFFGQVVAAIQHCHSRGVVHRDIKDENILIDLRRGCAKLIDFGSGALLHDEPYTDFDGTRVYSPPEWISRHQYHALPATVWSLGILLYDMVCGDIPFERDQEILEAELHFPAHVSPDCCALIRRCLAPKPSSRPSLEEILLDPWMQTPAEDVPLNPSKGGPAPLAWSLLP

[3] = target: T1, PIM1 (Homo sapiens, UniProt P11309); assay: Pim-1 protein kinase assay (Procedure 1), Table 1; type: biochemical; set-up: purchased Upstate 14-573
T1 sequence (P11309 whole entry): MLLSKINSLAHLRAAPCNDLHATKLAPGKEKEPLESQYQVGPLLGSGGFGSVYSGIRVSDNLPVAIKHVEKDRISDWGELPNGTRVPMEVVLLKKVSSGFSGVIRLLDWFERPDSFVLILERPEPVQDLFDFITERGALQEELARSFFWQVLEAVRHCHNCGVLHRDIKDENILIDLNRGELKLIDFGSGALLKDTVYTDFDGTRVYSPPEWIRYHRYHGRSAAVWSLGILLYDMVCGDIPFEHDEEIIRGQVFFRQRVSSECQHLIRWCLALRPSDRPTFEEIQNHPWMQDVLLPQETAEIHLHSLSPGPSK
Source text: The following in vitro procedure can be used to evaluate compounds for inhibition of Pim-1 protein kinase.

[4] = tested on: PC-3 prostate cancer cell; assay: PC-3 cell viability with or without rapamycin; type: cell-based, human; conditions: administered alone, doses of 1 and 3 μM, after 36 hours
Source text: FIG. 5 depicts the results of these experiments.

[5] = tested on: MV7;11 and FDCP1 cells; assay: Combined treatment with rapamycin, growth inhibition; type: cell-based
[6] = tested on: PC3, DU145, LNCaP, U937, K582, and MV7;11 cell lines; assay: Growth inhibition of cancer cell lines, 72 hours; type: cell-based, human; conditions: treatment for 72 hours in culture
[7] = tested on: AMPK protein kinase; assay: Phosphorylation of AMPK on threonine 172
Source text: This phosphorylation is known to activate this protein kinase and lead to the phosphorylation of TSC2 and the inhibition of TOR protein kinase (Molecular Cell 30: 214-226, 2008; Oncogene 26: 1616-1625, 2007).

[8] = tested on: phosphoBad in FDCP1-Pim cells; assay: PhosphoBad time course in FDCP1-Pim cells; type: cell-based, murine; conditions: 5 μM, serum and IL-3-free conditions, by 2 hours, compared to DMSO-treated cells
[9] = tested on: 22Rv1-Pim cells; assay: Apoptosis (sub G1, FACS) in 22Rv1-Pim cells; conditions: 5 μM, 72 hours, serum-free conditions
[10] = tested on: 4E-BP1 phosphorylation in FDCP1 cells
[11] = tested on: p27^Kip1 in K562, U937, and MV7;11 cells; assay: p27Kip1 location in cytoplasmic and nuclear fractions; type: cell-based, human; conditions: 72 hours, media containing 10% FCS; all three cell lines
Method: To examine p27^Kip1 location, K562, U937 or MV7;11 cells (1×10^5/mL) were incubated for 72 hours in complete media with DMSO or a disclosed Pim-1 and/or Pim-2 inhibitor. Cells were harvested, washed in PBS and cytoplasmic and nuclear fractions were prepared using the NE-PER Nuclear and Cytoplasmic Extraction kit (Pierce Biotechnology, Rockford, Ill.) according to the manufacturer's instructions, followed by SDS-PAGE and western blotting with anti-p27^Kip1 antibody, as described above. To measure Cdk2 activity, this protein was immunoprecipitated from K562, U937, or MV7;11 cells treated for 72 hours with Pim inhibitors, lysed in buffer (50 mM Tris-HCl, pH 8.0 containing 5 mM EDTA, 150 mM NaCl, 1% NP-40 and 1 mM phenylmethylsulfonyl fluoride) followed by the addition of Cdk2 antibody (2 μg). Samples were then rotated overnight at 4° C., and Cdk2 was immunoprecipitated by the addition of protein G beads (Pierce Biotechnology) with rotation at room temperature for 1 h. […] Reactions were allowed to proceed for 15 minutes at 37° C., and then analyzed by SDS-PAGE. ^32P-Phosphorylated histone H1 was visualized by autoradiography, and Cdk2 protein levels detected by Western blotting, as described above.

[12] = tested on: DU145 and MV7;11 cells; assay: Cell cycle distribution by FACS; conditions: 5 μM for 72 hours; DU145 in 2% serum, MV7;11 in 10% serum; compared to DMSO control
[13] = tested on: Cdk2 activity in K562 cells; conditions: K562 cells treated 72 hours, 10% FCS; histone H1 as substrate
[14] = tested on: phosphoBad in 22Rv1-Pim and DU145-Pim cells; assay: PhosphoBad level by Western blotting in Pim-1 transfected prostate cancer cells; type: cell-based, human; conditions: 1 hour, serum-free conditions; total Bad constant
[15] = target: T1, PIM1; assay: biochemical
[16] = target: T1, PIM1; conditions: 5 μM, in vitro

Work on Cc1ccc(/C=C2\SC(=O)NC2=O)cc1 [Compound D12] yielded an IC50 [1] of over 100000 nM and an IC50 [2] of 4400 ± 200 nM.

Work on CCc1ccc(/C=C2\SC(=O)NC2=O)cc1 [Compound D13] yielded an IC50 [3] of 600 ± 100 nM and an IC50 [2] of 300 ± 100 nM.

CCOc1ccc(/C=C2\SC(=O)NC2=O)cc1 [Compound D15] gave an IC50 [1] of 65000 ± 17000 nM, an IC50 [3] of 170 ± 40 nM and an IC50 [2] of 43000 ± 18000 nM.

Molecule Cc1cccc(/C=C2\SC(=O)NC2=O)c1 [Compound D4] has an IC50 [3] of 160 ± 40 nM and an IC50 [2] of 100 ± 100 nM.

For COc1ccc(/C=C2\SC(=O)NC2=O)cc1 [Compound D14], the IC50 [1] was 11000 ± 1000 nM, the IC50 [3] was 5100 ± 5000 nM and the IC50 [2] was 300 ± 100 nM.

With O=C1NC(=O)/C(=C/c2ccc(OC(F)(F)F)cc2)S1 [Compound D19] the IC50 [1] was 48000 ± 27000 nM and the IC50 [2] was 500 ± 200 nM.

O=C1NC(=O)/C(=C/c2ccc(Br)cc2)S1 [Compound D11] showed an IC50 [3] of 28000 ± 23000 nM.

For O=C1NC(=O)N(Cc2ccccc2)/C1=C\c1ccc(Br)cc1 [Compound D30], the IC50 [3] was 58000 ± 7500 nM.

COc1cccc(/C=C2/C(=O)NC(=O)N2Cc2ccccc2)c1 [Compound D32] gave an IC50 [1] of 80000 ± 15000 nM.

In the case of O=C1S/C(=C\c2ccc(F)cc2)C(=O)N1Cc1ccccc1F [Compound D27], the IC50 [1] is reported as over 100000 nM and the IC50 [3] is reported as 45000 ± 15000 nM.

In the case of O=C1NC(=O)/C(=C/c2cccc(C(F)(F)F)c2)S1 [Compound D5, 5-(3-trifluoromethylbenzylidene)thiazolidine-2,4-dione], the “inhibition of cell viability” value [4] is reported as 40%, the “growth inhibition, combined treatment with rapamycin” value [5] is reported as “significant growth inhibition” and the “growth inhibition of cancer cell lines” value [6] is reported as “growth inhibition of each cell line”. The “phosphorylation of AMPK on threonine 172” value [7] was “increase the phosphorylation”, the phosphoBad levels [8] was “reduction in phosphoBad levels” and the “sub G1 population” value [9] was 38.1%. The “concentration at which phosphorylation of 4E-BP1 was inhibited” value ([10]; 1 hour, absent rapamycin) was 1.6 to 3.2 µM, the “effect on rapamycin inhibition of 4E-BP1 phosphorylation” value ([10]; with or without serum, combined with rapamycin) was “enhanced the ability of rapamycin to inhibit 4E-BP1 phosphorylation” and the “amount of p27^Kip1 in nuclear fractions” value [11] was “increase in the amount of p27^Kip1 in nuclear fractions”. For the same molecule, the cell cycle arrest [12] was “significant G1 cell cycle arrest” and the IC50 [2] was 100 ± 300 nM.

For CN(C)c1ccc(/C=C2\SC(=O)NC2=O)cc1 [Compound D20], the IC50 [1] was 66000 ± 13000 nM, the IC50 [3] was 6000 ± 1700 nM and the IC50 [2] was 100 ± 100 nM.

Molecule O=C1NC(=O)/C(=C/c2ccc(F)cc2)S1 [Compound D9] has an IC50 [1] of 93000 ± 5000 nM and an IC50 [2] of 2300 ± 100 nM.

In the case of O=C1NC(=O)/C(=C/c2cccc(Br)c2)S1 [Compound D3], the IC50 [1] is reported as 58000 ± 11000 nM, the IC50 [3] is reported as 45000 ± 11000 nM and the IC50 [2] is reported as 90 ± 40 nM.

In the case of CC(C)c1ccc(/C=C2\SC(=O)NC2=O)cc1 [Compound D17], the IC50 [3] is reported as 40 ± 30 nM and the IC50 [2] is reported as over 100000 nM.

O=C1NC(=O)/C(=C/c2cccc(OC(F)(F)F)c2)S1 [Compound D7] was tested, and the IC50 [3] was 67 ± 61 nM and the IC50 [2] was 900 ± 400 nM.

COc1cccc(/C=C2\SC(=O)NC2=O)c1 [Compound D6] showed an IC50 [1] of 73000 ± 13000 nM and an IC50 [3] of 650 ± 50 nM.

For O=C1NC(=O)/C(=C/c2ccc(Cl)cc2)S1 [Compound D10], the IC50 [3] was 40 ± 30 nM and the IC50 [2] was 200 ± 100 nM.

For O=C1NC(=O)/C(=C/c2cccc(F)c2)S1 [Compound D1], the IC50 [3] was 130 ± 60 nM and the IC50 [2] was 400 ± 200 nM.

In the case of CCCOc1ccc(/C=C2\SC(=O)NC2=O)cc1 [Compound D16, 5-(4-propoxybenzylidene)thiazolidine-2,4-dione], the “growth inhibition, combined treatment with rapamycin” value ([5]; 72 hours, rapamycin 5 nM plus compound 5 μM, MV7;11 and FDCP1 cells) is reported as “significant growth inhibition”, the “growth inhibition of cancer cell lines” value [6] is reported as “growth inhibition of each cell line” and the “phosphorylation of AMPK on threonine 172” value [7] is reported as “increase the phosphorylation”. The “decreased Cdk2 activity” value [13] was about 60%, the “amount of p27^Kip1 in nuclear fractions” value [11] was “increase in the amount of p27^Kip1 in nuclear fractions” and the “level of phosphoBad” value [14] was “decreased in a dose-dependent manner”. For the same molecule, the cell cycle arrest [12] was “significant G1 cell cycle arrest”, the IC50 [15] was 63 ± 11 nM and the IC50 [3] was 150 ± 110 nM. The IC50 [2] was 20 ± 10 nM and the “phosphorylation of p27^Kip1 by Pim-1” value [16] was “reduce phosphorylation”.

CN(C)c1ccc(/C=C2/C(=O)NC(=O)N2Cc2ccccc2)cc1 [Compound D31] gave an IC50 [3] of 78000 ± 7500 nM.

O=C1NC(=O)/C(=C/c2cccc(OC(F)(F)C(F)F)c2)S1 [Compound D8] showed an IC50 [3] of 73 ± 53 nM and an IC50 [2] of 2200 ± 1100 nM.

With O=C1NC(=O)/C(=C/c2ccc(C(F)(F)F)cc2)S1 [Compound D18] the IC50 [3] was 330 ± 130 nM and the IC50 [2] was 80 ± 20 nM.

In the case of O=C1NC(=O)/C(=C/c2cccc(Cl)c2)S1 [Compound D2], the IC50 [3] is reported as 600 ± 510 nM and the IC50 [2] is reported as 400 ± 150 nM.
